# Results published in PMC5435687 (Scientific Reports, 2017).
# “And” between values parts separate entries of the source, which are not always exact repeats. Equal entries are not always repeated.
# Legend:
# [1] = tested on: SH-SY5Y cells; assay: Aβ uptake under pharmacological inhibition of endocytic mechanisms (flow cytometry); type: cell-based, human; conditions: for effect of CPZ on Aβ uptake: 5 µg/ml CPZ; for reduction in Aβ uptake with cytochalasin A or D: 10 µM cytochalasin A or 25 µg/ml cytochalasin D
# Description: Flow cytometry was used to quantify cellular uptake. […] For experiments including Trf B-27 was omitted, as outlined above. […] All samples were kept on ice until they were analysed on a Guava EasyCyte 8HT (Millipore, Darmstadt, Germany) that automatically retrieves samples from a 96-well plate. In order to exclude effects due to difference in delay time we used mixed order of analysis, loading only a few samples at a time with the remaining samples kept on ice. The cell counting gate was determined using propidium iodide (0.5 µM, not washed away prior to analysis) and calcein-AM (10 nM, 15 min staining) to distinguish live and dead cells, and for each sample 5,000 cells from within the live gate were counted and analysed. HF488, AlexaFluor488, EGFP and calcein-AM were excited by a 488 nm laser and their fluorescence was detected through a 525/30 nm filter. Propidium iodide and mRFP were excited by the 488 nm laser but detected through a 692/46 nm filter. HF647 and AlexaFluor647 were excited with a 635 nm laser and detected through a 661/19 nm filter. Compensation was performed to adjust for bleed through in experiments including mRFP. Mean cellular uptake was estimated as the average fluorescence intensity of all cells gated within the live region and all individual experiments were performed with three technical replicates (n = 3) unless else is stated. The average fluorescence intensity was baseline corrected by subtracting the signal for unstained cells.
# Endocytic mechanisms were also perturbed by treatment of cells with pharmacological inhibitors. Stock solutions of cytochalasin A, cytochalasin D, dynasore, wortmannin and IPA-3 were prepared in DMSO and diluted in serum-free cell culture media supplemented with 30 mM HEPES on the day of the experiment. The final DMSO concentration added to the cells was kept <0.1% and matched for the control. […] The cells were centrifuged 1000 * g for 5 min at 4 °C, washed 3x with ice-cold serum-free medium, followed by detachment and immediate flow cytometry analysis, as detailed above. […] Only the live cells were included in the analysis. Trf was used as a positive control for clathrin-mediated endocytosis. Due to the rapid uptake and recycling of internalized Trf we adopted an optimized protocol with sufficiently short Trf incubation times. First, to remove the quantities of membrane-bound Trf that originate from the serum component of the complete culture medium the cells were washed 3x in serum-free medium. The cells were then subjected to the inhibitors as described above and thereafter exposed to a 5 min pulse of 5 µg/ml Trf. To remove externally bound fluorescently labelled Trf the cells were thereafter washed (3x/2 min) in ice-cold acidic buffer (0.1 M Glycine-HCl buffer pH 2.5 with 150 mM NaCl)[35] whilst kept on ice. The cells were then harvested for flow cytometry analysis, and analysed one sample at a time with mixed order of analysis whilst keeping the remaining samples on ice.
# [2] = tested on: SH-SY5Y cells; assay: Confocal imaging based quantification of cellular uptake of Aβ; type: cell-based, human; conditions: for number of internalised Aβ peptides per cell (rounded): SH-SY5Y, 1 µM peptide, 8 h, imaging-based quantification, order-of-magnitude statement; for intravesicular Aβ concentration: re-calculated from molecules per cell (1 µM, 8 h) under assumption of total lysosomal load of 10 μm^3 per cell
# Description: The samples were washed 1x in serum free medium prior to incubation with Aβ peptides and/or other reagents also in serum free medium that was supplemented with 30 mM HEPES and 2% B-27. For experiments including Trf B-27 was omitted as it, according to the media formulation provided by the manufacturer, contains unlabelled Trf that interferes with the experiment. Prior to imaging, cells were stained with 50 nM LysoTracker Deep Red for 30 min and 5 µg/ml Hoechst 33342 was added during the last 10 min of incubation. The cells were thereafter washed 1x, treated with 5 µg/ml FM 4–64 and imaged immediately (for labelling of cellular membrane) or after 10 min incubation at 37 °C (for labelling of cellular membrane and endocytic vesicles). Confocal images were acquired either on a Nikon C2+ confocal microscope equipped with a C2-DUVB GaAsP Detector Unit and using an oil-immersion 60 × 1.4 Nikon APO objective (Nikon Instruments, Amsterdam, Netherlands), or on a home-built Thorlabs CLS system equipped with a Galvo:Resonant scanner, a Multi-Channel Fiber-Coupled laser source and High-Sensitivity GaAsP PMT detectors recording onto ThorImageLS software (Thorlabs Inc, New Jersey, U.S.A.). The scanner unit was mounted onto a Leica DMIRB microscope equipped with an oil immersion 63x NA 1.47 Leica HCX PL APO objective for imaging and co-localisation analysis, or a 40x NA 0.55 Leica N PLAN L CORR air objective for quantification of peptide uptake. The sample was excited and detected sequentially with appropriate excitation laser lines and emission filters.
# Images were captured with an open pinhole, corresponding to 7.8 airy units (AUs), in order to sample intensity from intracellular peptide throughout the full thickness of the cells. First, to determine an accurate sampling depth, images were acquired at three focal planes separated by 1 µm between each and analysed for matched summed intracellular intensity. Next, images were acquired with identical settings from a field of view with on average 25 cells/image. […] To obtain the total Aβ emission intensity per cell, all pixel values were summed and divided by the total number of cells in the image (the cell number was determined from the number of nuclei visible in the Hoechst emission channel). […] The mean intensity per pixel was calculated and related to concentration by performing a linear regression of mean intensity from three samples per concentration. The imaging depth was calculated based on imaging parameters and objective specifications generating a point spread function (PSF) for the focal spot. The resulting voxel size was calculated to be 740 nm in the axial direction, whereby 2.5x this voxel was determined to be representative of the sampling probe depth. […]
# [3] = 1 µM HF488-labelled Aβ 1 h, 4 independent experiments in triplicate
# [4] = 30 min pre-incubation, 1 µM Aβ 1 h, n = 3
Substance,"effect of CPZ on Aβ uptake [1, 3]","reduction in Aβ uptake with IPA-3 and wortmannin ([1]; 10 µM IPA-3 or 25 nM wortmannin, 30 min pre-incubation, 1 µM Aβ 1 h, n = 3)","reduction in Aβ uptake with cytochalasin A or D [1, 4]",number of internalised Aβ peptides per cell (rounded) [2],intravesicular Aβ concentration [2],"effect of dynasore on Aβ uptake ([1]; 80 µM dynasore, 30 min pre-incubation, 1 µM HF488-labelled Aβ 1 h, 4 independent experiments in triplicate, ANOVA with Bonferroni)"
"Aβ(1–40): Synthetic 40 residue amyloid-β peptide conjugated to HiLyte Fluor HF488 (or HF647) at the N-terminus, from Anaspec",reductions,~ 50%,~ 30%,"400,000 molecules per cell and ~ 400,000 molecules per cell",~ 60 µM,
"Aβ(1–42): Synthetic 42 residue amyloid-β peptide conjugated to HiLyte Fluor HF488 (or HF647) at the N-terminus, from Anaspec",impaired to a greater extent than that of Aβ(1–40),,~ 70%,"800,000 molecules per cell and ~ 800,000 molecules per cell",~ 140 µM,statistically significantly reduced
